From patent US12630529B2, “GCN2 modulator compounds” (ALESTA THERAPEUTICS BV, priority 2020, dated 2026) come the findings set out here.

In general, IC50 refers to the point on the concentration scale where inhibition reaches its midpoint. Read a high IC50 as lower potency.

Some results are limits rather than exact numbers.

This assay addresses T1, GCN2 (Mus musculus, UniProt Q9QZ05).
T1 construct: endogenous in cells; host or cells: Neuro 2a (N2a)
The experiment in a line: GCN2 inhibition cell-based assay (P-GCN2 Western blot in Neuro 2a cells). Particulars: amino acid deprived media (DMEM lacking L-cysteine and methionine), 3 hours. How it is done:
Neuro 2a cells (N2a) were maintained at 37° C. and 5% CO2 in DMEM/F12 medium (Fisher Scientific) supplemented with 10% fetal bovine serum and 1% penicillin-streptomycin (complete medium). 300,000 cells/well were seeded in flat bottom 6 well plates 48 hours before treatment with the compounds.
Testing compounds were prepared at different concentrations ranging from 10 μM to 0.1 nM on DMEM medium lacking L-cysteine and methionine (DMEM-CM) (Gibco) and supplemented with 1% penicillin-streptomycin. Complete medium was used as control of non-stressed condition. After 48 hours, the medium was removed from each well and 2 mL per well of each treatment was added. Cells were treated for 3 hours at 37° C. and 5% CO2.
After the incubation time, each well was washed with sterile 1×PBS and then 100 μL of ice-cold lysis buffer supplemented with phosphatase and protease inhibitors was added. Lysates were transferred to 1.5 mL tubes and sonicated for 3 min, and total protein amounts were quantified using BCA assay (e.g., BCA Protein Assay Kit; Pierce) according to manufacturer instructions. Equal amount of proteins was loaded on SDS-PAGE gels for electrophoresis and then transferred onto 0.2 µm filter pore PVDF membranes.
Membranes were then blocked in blocking buffer containing 3% BSA/0.1% Tween/1×Tris-buffered saline (TBS) for 1 hour and then incubated overnight at 4° C. with agitation with anti-pGCN2 primary antibody (Abcam ab-75836), diluted 1:1,000 in blocking buffer. […] (Sigma Aldrich) was used as a loading control.
Membranes were then incubated with the corresponding secondary antibody to detect immune-reactive bands using enhanced chemiluminescence (e.g., ECL Western Blotting Substrate Pierce).
Images were acquired (e.g., using Chemidoc™ equipment) and quantitated by densitometry using ImageJ software. IC50 values were determined from a concentration-response curve using GraphPad prism software.
IC50 values from P-GCN2 inhibition assay after induction with amino acid deprived media in the presence of different concentrations of test compounds are shown in Table 2. For IC50 values: +++ refers to <10 nM of test compound; ++ refers to 10 nM to 100 nM of test compound; + refers to 100 nM to 1,000 nM of test compound and − refers to >1,000 nM of test compound.
Under GCN2-mediated stress conditions, resulting from an amino acid deprived medium, GCN2 is generally phosphorylated. Accordingly, inhibition of GCN2 phosphorylation as a result of the test compound indicates inhibition of the GCN2 pathway.
A general note: A western blot detects proteins with antibodies after separation by electrophoresis.

T1 sequence (Q9QZ05 whole entry): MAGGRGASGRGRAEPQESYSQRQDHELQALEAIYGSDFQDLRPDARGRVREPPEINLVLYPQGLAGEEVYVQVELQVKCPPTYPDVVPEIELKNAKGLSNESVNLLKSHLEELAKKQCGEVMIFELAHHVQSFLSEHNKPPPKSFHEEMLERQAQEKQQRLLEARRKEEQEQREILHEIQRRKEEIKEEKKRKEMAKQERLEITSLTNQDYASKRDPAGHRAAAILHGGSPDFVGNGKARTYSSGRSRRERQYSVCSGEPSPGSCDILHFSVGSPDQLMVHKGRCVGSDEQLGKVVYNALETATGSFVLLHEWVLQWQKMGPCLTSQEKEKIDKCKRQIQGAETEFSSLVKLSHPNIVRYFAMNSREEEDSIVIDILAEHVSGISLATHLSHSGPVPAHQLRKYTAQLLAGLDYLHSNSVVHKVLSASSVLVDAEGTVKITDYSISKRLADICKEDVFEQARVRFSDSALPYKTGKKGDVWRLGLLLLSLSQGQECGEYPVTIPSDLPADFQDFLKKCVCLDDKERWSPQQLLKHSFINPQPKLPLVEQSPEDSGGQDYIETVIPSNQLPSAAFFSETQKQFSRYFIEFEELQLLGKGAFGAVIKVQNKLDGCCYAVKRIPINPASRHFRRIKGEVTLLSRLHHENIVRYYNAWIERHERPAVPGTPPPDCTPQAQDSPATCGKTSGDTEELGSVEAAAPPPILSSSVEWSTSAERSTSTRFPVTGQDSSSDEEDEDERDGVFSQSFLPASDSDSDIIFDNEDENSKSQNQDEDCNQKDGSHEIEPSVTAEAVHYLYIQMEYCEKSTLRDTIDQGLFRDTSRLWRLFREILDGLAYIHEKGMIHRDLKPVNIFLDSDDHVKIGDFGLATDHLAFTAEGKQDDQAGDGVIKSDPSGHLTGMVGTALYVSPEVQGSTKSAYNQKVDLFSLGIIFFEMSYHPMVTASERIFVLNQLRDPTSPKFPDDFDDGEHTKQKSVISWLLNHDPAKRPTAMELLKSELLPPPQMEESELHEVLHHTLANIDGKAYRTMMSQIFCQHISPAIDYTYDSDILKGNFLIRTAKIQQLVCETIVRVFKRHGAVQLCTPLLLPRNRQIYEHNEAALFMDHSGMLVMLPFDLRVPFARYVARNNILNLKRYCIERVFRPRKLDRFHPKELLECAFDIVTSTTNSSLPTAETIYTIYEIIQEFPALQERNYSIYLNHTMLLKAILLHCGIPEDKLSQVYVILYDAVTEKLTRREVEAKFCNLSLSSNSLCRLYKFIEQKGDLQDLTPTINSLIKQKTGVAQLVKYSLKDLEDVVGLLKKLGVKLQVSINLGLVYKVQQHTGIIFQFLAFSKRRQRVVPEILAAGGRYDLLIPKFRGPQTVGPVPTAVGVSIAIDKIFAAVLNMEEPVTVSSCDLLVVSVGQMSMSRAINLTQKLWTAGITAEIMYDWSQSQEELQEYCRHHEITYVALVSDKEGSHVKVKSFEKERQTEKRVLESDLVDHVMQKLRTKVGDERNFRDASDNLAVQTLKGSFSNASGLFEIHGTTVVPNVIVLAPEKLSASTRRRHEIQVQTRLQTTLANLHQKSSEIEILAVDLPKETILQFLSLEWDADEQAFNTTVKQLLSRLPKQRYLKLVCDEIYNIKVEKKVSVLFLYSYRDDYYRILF

Take `COc1ncc(Cl)cc1S(=O)(=O)Nc1ccc(F)c(-c2ccc3nc(N[C@H](C)CO)ncc3c2)c1F` [Compound 66]: the IC50 was < 10 nM. For the molecule `Nc1ncc2cc(-c3c(F)ccc(NS(=O)(=O)c4cc(C(F)(F)F)cc(C(F)(F)F)c4)c3F)ccc2n1` [Compound 144], the IC50 was in the range of 10 to 100 nM.

As to `Nc1ncc2c(-c3c(F)ccc(NS(=O)(=O)c4cc(Cl)ccc4Cl)c3F)cccc2n1` [Compound 111], the IC50 was > 1000 nM. `Nc1ncc2cc(-c3c(F)ccc(NS(=O)(=O)c4cc(C(F)(F)F)ccc4F)c3F)ccc2n1` [Compound 135] registered an IC50 of 100 to 1000 nM. The figure for `CC(C)c1cccc(S(=O)(=O)Nc2ccc(F)c(-c3ccc4nc(N)ncc4c3)c2F)c1` [Compound 141] is > 1000 nM. Consider `O=S(=O)(Nc1ccc(F)c(-c2ccc3nc(N[C@H]4CC[C@H](O)CC4)ncc3c2)c1F)c1cc(Cl)ccc1C(F)(F)F` [Compound 164], for which the IC50 is < 10 nM.

`COc1ncc(Cl)cc1S(=O)(=O)Nc1ccc(F)c(-c2ccc3nc(N)ccc3c2)c1F` [Compound 20]: the IC50 was > 1000 nM. Then `COc1ccc(S(=O)(=O)Nc2ccc(F)c(-c3ccc4nc(N)ncc4c3)c2F)cc1C` [Compound 117], with > 1000 nM; and `Cc1cc(S(=O)(=O)Nc2ccc(F)c(-c3ccc4nc(N)ncc4c3)c2F)ccc1F` [Compound 160], with > 1000 nM.

In the case of `COc1ncc(Cl)cc1S(=O)(=O)Nc1ccc(F)c(-c2cccc3cnc(N)nc23)c1F` [Compound 44], the IC50 is > 1000 nM. The figure for `Cc1ccc(S(=O)(=O)Nc2ccc(F)c(-c3ccc4nc(N)ncc4c3)c2F)cc1F` [Compound 159] is 10 to 100 nM; for `Nc1ncc2cc(-c3c(F)ccc(NS(=O)(=O)c4ccc(Cl)c(Cl)c4)c3F)ccc2n1` [Compound 9] it is 100 to 1000 nM. For `O=S(=O)(Nc1ncc(F)c(-c2ccc3nc(NCCO)ncc3c2)c1F)c1cc(Cl)ccc1Cl` [Compound 128], the IC50 is < 10 nM. Then `COc1ccc(OC)c(S(=O)(=O)Nc2ccc(F)c(-c3ccc4nc(N)ncc4c3)c2F)c1` [Compound 119], with > 1000 nM. As to `Cc1cc(S(=O)(=O)Nc2ccc(F)c(-c3ccc4nc(N)ncc4c3)c2F)c(C)cc1Cl` [Compound 109], the IC50 lay in the range of 10 to 100 nM. `Nc1ncc2cc(-c3c(F)ccc(NS(=O)(=O)c4ccc(F)c(C(F)(F)F)c4)c3F)ccc2n1` [Compound 136] gave an IC50 of 100 to 1000 nM. `COc1ncc(Cl)cc1S(=O)(=O)Nc1ccc(F)c(-c2cccc3nc(N)ncc23)c1F` [Compound 45]: the IC50 is > 1000 nM. For `Cc1cccc(S(=O)(=O)Nc2ccc(F)c(-c3ccc4nc(N)ncc4c3)c2F)c1` [Compound 125], the IC50 is > 1000 nM. As for `Nc1ncc2cc(-c3cccc(NS(=O)(=O)c4cc(Cl)ccc4Cl)c3F)ccc2n1` [Compound 13], the IC50 was < 10 nM.

In turn, `COc1ncc(Cl)cc1S(=O)(=O)Nc1ccc(F)c(-c2ccc3nc(N[C@@H](CO)c4ccccc4)ncc3c2)c1F` [Compound 154] registered an IC50 of 100 to 1000 nM.

`COc1ncc(Cl)cc1S(=O)(=O)Nc1cccc(-c2ccc3nc(N)ncc3c2)c1C` [Compound 51]: the IC50 was < 10 nM. Regarding `CNc1ncc2cc(-c3c(F)ccc(NS(=O)(=O)c4cc(Cl)cnc4OC)c3F)ccc2n1` [Compound 47], the IC50 was < 10 nM. The molecule `Nc1ncc2cc(-c3c(F)ccc(NS(=O)(=O)c4ccc(Cl)c(F)c4)c3F)ccc2n1` [Compound 146] had an IC50 of 100 to 1000 nM.

As to `CC(=O)Nc1ncc2cc(-c3c(F)ccc(NS(=O)(=O)c4cc(Cl)ccc4Cl)c3F)ccc2n1` [Compound 106], the IC50 is < 10 nM. Consider `O=S(=O)(Nc1ccc(F)c(-c2cc(F)c3[nH]cnc3c2)c1F)c1cc(Cl)ccc1Cl` [Compound 18], for which the IC50 is > 1000 nM. Then `Nc1ncc2cc(-c3c(F)ccc(NS(=O)(=O)c4ccc(Cl)c(C(F)(F)F)c4)c3F)ccc2n1` [Compound 149], with 100 to 1000 nM. Consider `Nc1ncnc2ccc(-c3c(F)ccc(NS(=O)(=O)c4cc(Cl)ccc4Cl)c3F)cc12` [Compound 17], for which the IC50 was > 1000 nM.

In the case of `Nc1ncc2cc(-c3c(F)ccc(NS(=O)(=O)c4cc(F)cc(C(F)(F)F)c4)c3F)ccc2n1` [Compound 123], the IC50 is > 1000 nM.

Consider `CNc1ncc2cc(-c3c(F)ccc(NS(=O)(=O)c4cc(Cl)cc(CO)c4Cl)c3F)ccc2n1` [Compound 162], for which the IC50 was 10 to 100 nM. Regarding `Nc1ccc2cc(-c3c(F)ccc(NS(=O)(=O)c4cc(Cl)ccc4Cl)c3F)ccc2n1` [Compound 107], the IC50 is > 1000 nM. Turning to `COc1ncc(Cl)cc1S(=O)(=O)Nc1ccc(F)c(-c2ccc3nc(N[C@@H](C)CO)ncc3c2)c1F` [Compound 157], the IC50 was < 10 nM. As for `Nc1ncc2cc(-c3c(F)ccc(NS(=O)(=O)c4cc(Cl)ccc4C(F)(F)F)c3F)ccc2n1` [Compound 58], the IC50 is < 10 nM. In the case of `COc1ncc(Cl)cc1S(=O)(=O)Nc1ccc(F)c(-c2ccc3nc(NC(CO)CO)ncc3c2)c1F` [Compound 153], the IC50 lay in the range of 10 to 100 nM. `O=S(=O)(Nc1ccc(F)c(-c2ccc3nc(N[C@H]4CC[C@H](O)CC4)ncc3c2)c1F)c1cc(Cl)ccc1Cl` [Compound 67]: the IC50 was < 10 nM. Molecule `COc1ccc(C)cc1S(=O)(=O)Nc1ccc(F)c(-c2ccc3nc(N)ncc3c2)c1F` [Compound 118] displayed an IC50 of 10 to 100 nM. Turning to `Cc1cc(C)cc(S(=O)(=O)Nc2ccc(F)c(-c3ccc4nc(N)ncc4c3)c2F)c1` [Compound 113], the IC50 is < 10 nM.

For the molecule `Nc1ncc2cc(-c3c(F)ccc(NS(=O)(=O)c4cccc(F)c4F)c3F)ccc2n1` [Compound 124], the IC50 is > 1000 nM. Then `Nc1ncc2cc(-c3c(F)ccc(NS(=O)(=O)c4cc(Cl)cc(Cl)c4)c3F)ccc2n1` [Compound 59], with < 10 nM; and `COc1ncc(Cl)cc1S(=O)(=O)Nc1ccc(Cl)c(-c2ccc3nc(N)ncc3c2)c1Cl` [Compound 131], with 10 to 100 nM. Take `COc1ccc(Cl)cc1S(=O)(=O)Nc1ccc(F)c(-c2ccc3nc(N)ncc3c2)c1F` [Compound 10]: the IC50 was < 10 nM. Take `COc1ncc(Cl)cc1S(=O)(=O)Nc1ccc(F)c(-c2ccc3nc(N4CCCCC4)ncc3c2)c1F` [Compound 156]: the IC50 was 10 to 100 nM. Turning to `Nc1ncc2cc(-c3cccc4c3ccn4S(=O)(=O)c3cc(Cl)ccc3Cl)ccc2n1` [Compound 76], the IC50 is > 1000 nM.

Turning to `O=S(=O)(Nc1ccc(F)c(-c2ccc3nc(N[C@H]4CC[C@@H](O)CC4)ncc3c2)c1F)c1cc(Cl)ccc1C(F)(F)F` [Compound 165], the IC50 fell in the range of 10 to 100 nM. For `Nc1ncc2cc(-c3c(F)ccc(NS(=O)(=O)C4CCCCC4)c3F)ccc2n1` [Compound 81], the IC50 was > 1000 nM. Then `O=S(=O)(Nc1ccc(F)c(-c2ccc3nc(N[C@@H](CO)c4ccccc4)ncc3c2)c1F)c1cc(Cl)ccc1C(F)(F)F` [Compound 167], with 100 to 1000 nM.

The molecule `Nc1ncc2cc(-c3c(F)ccc(NS(=O)(=O)c4ccc(Cl)cc4C(F)(F)F)c3F)ccc2n1` [Compound 137] gave an IC50 of 10 to 100 nM. As to `Nc1ncc2cc(-c3c(F)ccc(NS(=O)(=O)c4cccc(C(F)(F)F)c4)c3F)ccc2n1` [Compound 145], the IC50 was > 1000 nM. For `CCc1ccc(OC)c(S(=O)(=O)Nc2ccc(F)c(-c3ccc4nc(N)ncc4c3)c2F)c1` [Compound 120], the IC50 is > 1000 nM.

As to `Nc1ncc2cc(-c3c(F)ccc(NS(=O)(=O)c4cccc5cnccc45)c3F)ccc2n1` [Compound 64], the IC50 is < 10 nM. The molecule `Cc1ccc(NS(=O)(=O)c2cc(Cl)ccc2Cl)cc1-c1ccc2nc(N)ncc2c1` [Compound 16] showed an IC50 of 100 to 1000 nM. `Nc1ncc2cc(-c3c(F)ccc(NS(=O)(=O)c4ccc(F)c(C(F)(F)F)c4)c3F)ccc2n1` [Compound 138]: the IC50 was > 1000 nM. Regarding `Nc1ncc2cc(-c3c(F)ccc(N[S+]([O-])c4ccc(Cl)cc4Cl)c3F)ccc2n1` (stereo not drawn) [Compound 15], the IC50 lay in the range of 100 to 1000 nM. On to `Nc1ncc2cc(-c3c(F)ccc(NS(=O)(=O)c4ccc5c(c4)CCC5)c3F)ccc2n1` [Compound 161], for which the IC50 was > 1000 nM. The figure for `Nc1ncc2cc(-c3c(F)ccc(NS(=O)(=O)c4cccs4)c3F)ccc2n1` [Compound 142] is > 1000 nM; for `Nc1ncc2cc(-c3c(F)ccc(NS(=O)(=O)c4cccc(F)c4)c3F)ccc2n1` [Compound 116] it is > 1000 nM; for `Cc1ccc(S(=O)(=O)Nc2ccc(F)c(-c3ccc4nc(N)ncc4c3)c2F)cc1Cl` [Compound 147] it is 100 to 1000 nM.

Regarding `COc1ncc(Cl)cc1S(=O)(=O)Nc1ccc(F)c(-c2ccc3nc(N[C@H](CO)c4ccccc4)ncc3c2)c1F` [Compound 163], the IC50 lay within 100 to 1000 nM.
